The nature of one series: in vitro. The following applies: human, l02 cells. The method, then: (§1) The L02 and Hep3B cells were seeded in 96‐well plates (5000 cells per well), 24 h later, the cells were treated with DMSO (Control group) or each small molecule compound (10 µM) for another 48 h. Then cells were treated with CCK‐8 reagent (Dojindo Laboratories, Kumamoto, Japan) and incubated at 37 °C for 2 h. Absorbance at 450 nm was measured by SpectraMax M2e (Molecular devices, San Jose, CA). Five replicate wells for each group and three independent experiments were conducted. The cell viability (%) of each small molecule compound was normalized as the ratio of each compound/DMSO in L02 and Hep3B cells, respectively. The relative cell viability (%) = The cell viability of L02 cells (%) − The cell viability of Hep3B cells (%). […] Given that the common concentration used in in vitro drug screening is 10 µM,^[ [24] ^] therefore, in the three rounds of drug screening, all small molecules are 10 µM. […] A) Flowchart of functional screening. B) Scattered plot showing the cell viability of each small molecule in human normal fetal liver cell L02 and liver cancer Hep3B cells, 48 h after treatment with each compound (10 µM). […] C) Images and statistical histogram of 3D tumor spheroids from Hep3B (cultured for 5 days, followed by treated with 16 candidate compounds (10 µM) for another 3 days). Tumor spheroid was quantified as the total cross‐sectional area of spheroid in each group (area mean), n = 3, Means ± SD, ^* p < 0.05, ^** p < 0.01, Student's t‐test. D) Statistical histogram of the CD13^+CD133^+ population, 48 h after treatment with each candidate compound (10 µM), analyzed by FCM, n = 3, Means ± SD; ^* p < 0.05, ^** p < 0.01; Student's t‐test. E) Representative images of tumorspheres from HCC cells that received a 48‐h pretreatment with each candidate compound (10 µM) before tumorsphere culture. Bars, 1000 µm. Tumorspheres were quantified as the total cross‐sectional area of tumorspheres in each group (area sum), and similarly hereafter unless indicated. Statistical histogram of the tumorsphere size. n = 3, means ± SD, each compound compared with DMSO, ^* p < 0.05, ^** p < 0.01, Student's t‐test. F) Heat maps of functional screening results, shown by the relative value of CD13^+CD133^+ population (D) and tumorsphere size (E), with normalizing the vehicle group as 100%. CU27 chemical structure is shown in the right.

Another series concerns Hep3B. The series is described as follows: cells. The following applies: 48 h; for viability at 10 µM: Homo sapiens, Hep3B, read-out: Cell viability of Hep3B (Mean of Hep3B/DMSO) (%). The method, then:
as §1

Series [1] addresses T1, truncated c-Myc protein (a.a 354-437) (Homo sapiens, UniProt P01106).
T1 construct: bHLH/LZ domain fragment, residues 354-437; purified by DEAE ion exchange; coupled to CM5 chip; no Max present
The series is described as follows: SPR (Biacore S200, CM5 chip). The class given is binding.

SMILES strings stand for the structures.

T1 sequence (P01106 369-452): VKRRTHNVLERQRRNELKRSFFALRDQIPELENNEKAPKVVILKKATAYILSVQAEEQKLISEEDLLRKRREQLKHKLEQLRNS

On to `Cc1c(CN2CCN(C(=O)[C@H](C)O)CC2)sc2c(N3CCOCC3)nc(-c3cnc(N)nc3)nc12` [Apitolisib], for which the viability at 48 h, 10 µM in the series “in vitro” was found to be 37.1%. Further, in the series with Hep3B, the viability at 10 µM stood at 29.4%.

With `O=S(=O)(NCCNC/C=C/c1ccc(Br)cc1)c1cccc2cnccc12` [H89 2HCL], in the series with Hep3B, the viability at 10 µM worked out at 57%.

`CNC(=O)Nc1ccc(-c2nc(N3CC4CCC(C3)O4)c3cnn(C4CCC5(CC4)OCCO5)c3n2)cc1` [WYE-125132] yielded a viability at 48 h, 10 µM in the series “in vitro” of 45.1%. In addition, the viability at 10 µM with Hep3B was determined as 27.2%.

As to `Cn1c(=O)n(-c2ccc(C(C)(C)C#N)cc2)c2c3cc(-c4cnc5ccccc5c4)ccc3ncc21` [Dactolisib], the viability at 48 h, 10 µM in the series “in vitro” worked out at 27.2%. Moreover, in the series on Hep3B ([mut] cells, 10 µM), the “Cell viability of Hep3B (Mean of Hep3B/DMSO) (%)” value was found to be 21.03%.

On to `c1ccc2c(CCNc3ccc(Nc4ccncc4)cc3)c[nH]c2c1` [JNJ26854165], for which the viability at 48 h, 10 µM in “in vitro” was 38%. The viability at 10 µM in the series with Hep3B was 17.7%.

Consider `CCn1c(=O)c(-c2cc[nH]n2)cc2c(C)nc(N)nc21` [Voxtalisib], for which the viability at 48 h, 10 µM in the series “in vitro” is 26.9%. Further, in the series with Hep3B, the viability at 10 µM is 23.1%.

Regarding `CC(C)n1nc(-c2cc3cc(O)ccc3[nH]2)c2c(N)ncnc21` [Torkinib], in the series on Hep3B, the viability at 10 µM is 44.8%.

Consider `COc1ccc(COc2cc3oc(=O)c4cc(C(C)O)ccc4c3cc2OC)cc1` (stereo not drawn) [Palomid529], for which the viability at 48 h, 10 µM in the series “in vitro” is 58.1%. In the series on Hep3B, the viability at 10 µM turned out to be 62.4%.

In the case of `CCC(=O)N1CCN(c2ccc(-n3c(=O)ccc4cnc5ccc(-c6cnc7ccccc7c6)cc5c43)cc2C(F)(F)F)CC1` [Torin1], in the series with Hep3B, the viability at 10 µM was 24%.

As to `CCn1c(-c2nonc2N)nc2c(C#CC(C)(C)O)ncc(OC[C@H]3CCCNC3)c21` [GSK690693], in the series “in vitro”, the viability at 48 h, 10 µM is 49.3%. Besides, the viability at 10 µM in the series on Hep3B amounted to 63.8%.

Turning to `Cc1[nH]nc2ccc(-c3cncc(OC[C@@H](N)Cc4ccccc4)c3)cc12` [A-674563], the viability at 10 µM in the series with Hep3B is 21.7%.

The molecule `O=C1NC(=O)/C(=C/c2ccc3nccc(-c4ccncc4)c3c2)S1` [GSK1059615] had a viability at 48 h, 10 µM in the series “in vitro” of 13.5%. Besides, the viability at 10 µM with Hep3B was 17.9%.

`C=CCNC(=[Se])NN=C(c1ccccc1)c1ncccn1` [4a, Phenyl‐2‐pyrimidinyl ketone 4‐allyl‐3‐amino selenourea]: in series [1], the Kd was 0.562 nM. The same molecule displayed a viability at 48 h, 10 µM in the series “in vitro” of 79.4%.

For `NC1(Cc2ccc(Cl)cc2)CCN(c2ncnc3[nH]ccc23)CC1` [CCT128930], the viability at 10 µM with Hep3B is 34.4%.

Turning to `O=C1NCCc2[nH]c(-c3ccncc3)cc21` [PHA-767491], in “in vitro”, the viability at 48 h, 10 µM is 22.2%.

The values are drawn from article PMC9353477, “A Functional Screening Identifies a New Organic Selenium Compound Targeting Cancer Stem Cells: Role of c‐Myc Transcription Activity Inhibition in Liver Cancer” (Advanced Science, 2022).
